# pIC50: −log10 of the molar value.
# Columns and labels:
# [1] = tested on: recombinant guanylate cyclase reporter cell line; test: Effect on a recombinant guanylate cyclase reporter cell line; assay type: cell-based; conditions: read-out: MEC (minimum effective concentration)
# Procedure: B-2. Effect on a Recombinant Guanylate Cyclase Reporter Cell Line
# The cellular effect of the compounds according to the invention is determined using a recombinant guanylate cyclase reporter cell line, as described in F. Wunder et al., Anal. Biochem. 339, 104-112 (2005).
# aorta rings = test: Vasorelaxant effect in vitro (phenylephrine-contracted rabbit aorta rings); parameters: species or system Rabbits; conditions: Oryctolagus cuniculus, phenylephrine contraction, concentration needed to reduce the control value by 50%
# Procedure: B-1. Vasorelaxant Effect In Vitro
# Rabbits are stunned by a blow to the neck and exsanguinated. The aorta is removed, freed from adhering tissue and divided into rings of a width of 1.5 mm. The rings are placed individually under an initial tension in 5 ml organ baths with Krebs-Henseleit solution which is at 37° C., is gassed with carbogen and has the following composition (in each case mM): sodium chloride: 119; potassium chloride: 4.8; calcium chloride dihydrate: 1; magnesium sulphate heptahydrate: 1.4; potassium dihydrogenphosphate: 1.2; sodium bicarbonate: 25; glucose: 10. The contractile force is determined with Statham UC2 cells, amplified and digitalized using A/D transducers (DAS-1802 HC, Keithley Instruments Munich), and recorded in parallel on linear recorders. To produce a contraction, phenylephrine is added to the bath cumulatively in increasing concentration. After several control cycles, the substance to be investigated is added in each further run in increasing dosage in each case, and the height of the contraction achieved is compared with the height of the contraction reached in the last preceding run. This is used to calculate the concentration needed to reduce the magnitude of the control value by 50% (IC50 value). The standard administration volume is 5 μl; the DMSO content in the bath solution corresponds to 0.1%.
pIC50 (aorta rings),SMILES,minimal effective concentration [1] [µM]
–,"CCc1nnc(-c2nn(Cc3ccccc3F)c3ncccc23)nc1O [Example 19, 6-Ethyl-3-[1-(2-fluorobenzyl)-1H-pyrazolo[3,4-b]pyridin-3-yl]-1,2,4-triazin-5-ol]",1
7.64,"CC(F)c1nnc(-c2nn(Cc3ccccc3F)c3ncccc23)nc1N (stereo not shown) [Example 23, 3-[1-(2-Fluorobenzyl)-1H-pyrazolo[3,4-b]pyridin-3-yl]-6-(1-fluoroethyl)-1,2,4-triazine-5-amine]",0.1
7.52,"CCc1nnc(-c2nn(Cc3ccccc3F)c3ncccc23)nc1N [Example 20, 6-Ethyl-3-[1-(2-fluorobenzyl)-1H-pyrazolo[3,4-b]pyridin-3-yl]-1,2,4-triazine-5-amine]",0.1
7.28,"Nc1nc(-c2nn(Cc3ccccc3F)c3ncccc23)nnc1C(F)(F)F [Example 14, 3-[1-(2-Fluorobenzyl)-1H-pyrazolo[3,4-b]pyridin-3-yl]-6-(trifluoromethyl)-1,2,4-triazine-5-amine]",0.03
5.96,"Oc1nc(-c2nn(Cc3ccccc3F)c3ncccc23)nnc1C1CCCC1 [Example 15, 6-Cyclopentyl-3-[1-(2-fluorobenzyl)-1H-pyrazolo[3,4-b]pyridin-3-yl]-1,2,4-triazin-5-ol]",1
–,"Cc1noc(C)c1-c1nnc(-c2nn(Cc3ccccc3F)c3ncccc23)nc1N [Example 3, 6-(3,5-Dimethyl-1,2-oxazol-4-yl)-3-[1-(2-fluorobenzyl)-1H-pyrazolo[3,4-b]pyridin-3-yl]-1,2,4-triazine-5-amine]",0.3
6.04,"CC(C)c1nnc(-c2nn(Cc3ccccc3F)c3ncccc23)nc1O [Example 21, 3-[1-(2-Fluorobenzyl)-1H-pyrazolo[3,4-b]pyridin-3-yl]-6-isopropyl-1,2,4-triazin-5-ol]",0.3
–,"CCCc1nnc(-c2nn(Cc3ccccc3F)c3ncccc23)nc1O [Example 17, 3-[1-(2-Fluorobenzyl)-1H-pyrazolo[3,4-b]pyridin-3-yl]-6-propyl-1,2,4-triazin-5-ol]",1
5.53,"CS(=O)(=O)Nc1nnc(-c2nn(Cc3ccccc3F)c3ncccc23)nc1N [Example 11, N-{5-Amino-3-[1-(2-fluorobenzyl)-1H-pyrazolo[3,4-b]pyridin-3-yl]-1,2,4-triazin-6-yl}methanesulphonamide]",1
–,"Cc1cc(-c2nnc(-c3nn(Cc4ccccc4F)c4ncccc34)nc2N)ccn1 [Example 9, 3-[1-(2-Fluorobenzyl)-1H-pyrazolo[3,4-b]pyridin-3-yl]-6-(2-methylpyridin-4-yl)-1,2,4-triazine-5-amine]",0.1
7.60,"Nc1nc(-c2nn(Cc3ccccc3F)c3ncccc23)nnc1C1CCCC1 [Example 16, 6-Cyclopentyl-3-[1-(2-fluorobenzyl)-1H-pyrazolo[3,4-b]pyridin-3-yl]-1,2,4-triazine-5-amine]",0.03
5.58,"Oc1nc(-c2nn(Cc3ccccc3F)c3ncccc23)nnc1C(F)(F)F [Example 13, 3-[1-(2-Fluorobenzyl)-1H-pyrazolo[3,4-b]pyridin-3-yl]-6-(trifluoromethyl)-1,2,4-triazin-5-ol]",3
7.57,"CC(C)c1nnc(-c2nn(Cc3ccccc3F)c3ncccc23)nc1N [Example 22, 3-[1-(2-Fluorobenzyl)-1H-pyrazolo[3,4-b]pyridin-3-yl]-6-isopropyl-1,2,4-triazine-5-amine]",0.1
–,"Cc1ncccc1-c1nnc(-c2nn(Cc3ccccc3F)c3ncccc23)nc1N [Example 2, 3-[1-(2-Fluorobenzyl)-1H-pyrazolo[3,4-b]pyridin-3-yl]-6-(2-methylpyridin-3-yl)-1,2,4-triazine-5-amine]",0.1
–,"Nc1nc(-c2nn(Cc3ccccc3F)c3ncccc23)nnc1-c1cccnc1 [Example 7, 3-[1-(2-Fluorobenzyl)-1H-pyrazolo[3,4-b]pyridin-3-yl]-6-(pyridin-3-yl)-1,2,4-triazine-5-amine]",0.1
6.95,"COC(=O)Nc1nnc(-c2nn(Cc3ccccc3F)c3ncccc23)nc1N [Example 12, Methyl {5-amino-3-[1-(2-fluorobenzyl)-1H-pyrazolo[3,4-b]pyridin-3-yl]-1,2,4-triazin-6-yl}carbamate]",0.3
–,"Nc1nc(-c2nn(Cc3ccccc3F)c3ncccc23)nnc1-c1ccncc1 [Example 5, 3-[1-(2-Fluorobenzyl)-1H-pyrazolo[3,4-b]pyridin-3-yl]-6-(pyridin-4-yl)-1,2,4-triazine-5-amine]",0.1
7.52,"CCCc1nnc(-c2nn(Cc3ccccc3F)c3ncccc23)nc1N [Example 18, 3-[1-(2-Fluorobenzyl)-1H-pyrazolo[3,4-b]pyridin-3-yl]-6-propyl-1,2,4-triazine-5-amine]",0.1
–,"COc1ccc(-c2nnc(-c3nn(Cc4ccccc4F)c4ncccc34)nc2N)cn1 [Example 4, 3-[1-(2-Fluorobenzyl)-1H-pyrazolo[3,4-b]pyridin-3-yl]-6-(6-methoxypyridin-3-yl)-1,2,4-triazine-5-amine]",0.03
–,"Nc1nnc(-c2nn(Cc3ccccc3F)c3ncccc23)nc1N [Example 10, 3-[1-(2-Fluorobenzyl)-1H-pyrazolo[3,4-b]pyridin-3-yl]-1,2,4-triazine-5,6-diamine]",0.1
–,"Cn1cc(-c2nnc(-c3nn(Cc4ccccc4F)c4ncccc34)nc2N)cn1 [Example 6, 3-[1-(2-Fluorobenzyl)-1H-pyrazolo[3,4-b]pyridin-3-yl]-6-(1-methyl-1H-pyrazol-4-yl)-1,2,4-triazine-5-amine]",0.1
–,"Nc1nc(-c2nn(Cc3ccccc3F)c3ncccc23)nnc1-c1cncc(F)c1 [Example 1, 3-[1-(2-Fluorobenzyl)-1H-pyrazolo[3,4-b]pyridin-3-yl]-6-(5-fluoropyridin-3-yl)-1,2,4-triazine-5-amine]",0.1
–,"COc1ncccc1-c1nnc(-c2nn(Cc3ccccc3F)c3ncccc23)nc1N [Example 8, 3-[1-(2-Fluorobenzyl)-1H-pyrazolo[3,4-b]pyridin-3-yl]-6-(2-methoxypyridin-3-yl)-1,2,4-triazine-5-amine]",0.1
